Results on 4 molecules are retold here after patent US7015231B2, “Chemical compounds” (SmithKline Beecham Corporation, priority 2001, dated 2006).

This experiment has as its target T1, TrkA (Homo sapiens, UniProt P04629).
T1 construct: The enzyme is a GST-fusion of the intracellular domain expressed in SF9 cells; GST; purchased Regeneron; host or cells: SF9 cells
The experiment in a line: TrkA substrate phosphorylation assay (tyrosine kinase activity, synthetic peptide substrate, 33P-ATP, p81 filter plates). It is filed as biochemical. Conditions: GST-fusion of the TrkA intracellular domain, 30 uM ATP, 50 uM Src peptide, RT for 120′. How it is done:
Substrate phosphorylation assays were carried out as follows:
The enzyme is a GST-fusion of the intracellular domain expressed in SF9 cells. The enzyme is expressed and purified by Regeneron. The enzyme is preincubated with cold ATP and Mg to allow autophosphorylation prior to running the screen. […] The assay is performed in 96 well microtitre plates, and reaction products are detected following filtration through millipore p81 phosphocellulose plates.

T1 sequence (P04629 440-796 limits assumed, species assumed): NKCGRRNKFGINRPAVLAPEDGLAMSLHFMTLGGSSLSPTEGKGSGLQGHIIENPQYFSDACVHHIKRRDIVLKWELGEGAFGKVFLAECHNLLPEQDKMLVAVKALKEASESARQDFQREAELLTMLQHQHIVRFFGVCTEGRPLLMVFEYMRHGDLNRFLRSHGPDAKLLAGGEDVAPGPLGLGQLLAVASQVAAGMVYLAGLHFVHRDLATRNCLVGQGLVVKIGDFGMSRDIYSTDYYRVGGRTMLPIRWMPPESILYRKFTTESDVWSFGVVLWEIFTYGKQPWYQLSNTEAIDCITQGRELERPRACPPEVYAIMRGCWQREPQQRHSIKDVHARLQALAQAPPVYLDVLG

One may read the IC50 as the midpoint of a concentration-inhibition curve. A high value points to lower potency. `COc1ccccc1-c1cc(C=C2C(=O)Nc3ncc(Br)cc32)cc(Br)c1O` [Example 1, 3-(3-Bromo-4-hydroxy-5-(2′methoxyphenyl)-benzylidene)-5-bromo-1,3-dihydro-pyrrolo[2,3-b]pyridin-2-one] came in with an IC50 of under 10 nM.
Then `O=C1Nc2cccnc2C1=Cc1c[nH]c2ccccc12` [Example 3], with 10 to 250 nM; and `Cn1cc(C=C2C(=O)Nc3ncccc32)c2ccccc21` [Example 4], with under 10 nM; and `O=C1Nc2ncccc2C1=Cc1c[nH]c2ccccc12` [Example 5], with under 10 nM.
